Several values for one entry are separate records, joined by “and”; a condition that tells them apart may be missing. Equal values may be shown once. Entries after “also recorded” stand apart in the source; their conditions may differ.
How the values were obtained:
HCT 116 cells [1] = test: MTT cytotoxicity assay, HCT 116; format: cell-based, human; details: for IC50: Homo sapiens, HCT-116, MTT, 72 h after treatment, mean ± SEM; for Selectivity index (IC50 normal cell line/IC50 cancer cell lines), HCT 116: MRC-5 / HCT 116, in brackets
Protocol: (§1) SW620 cells were cultured in Dulbecco’s Modified Eagle’s medium (DMEM, Sigma-Aldrich Chemie GmbH, Steinheim, Germany) and supplemented in the same manner as the previously mentioned cell lines. Cells were grown in cell culture flasks T25 (Sarstedt AG & Co., Nümbrecht, Germany) at appropriate cell densities in the culture medium prior to exposure to treatments. Stock solutions of each compound, prepared in DMSO, were diluted in the culture medium to obtain the appropriate final concentrations.
(§2) The viability of the control and cells treated with the tested compounds was determined by MTT assay. Cells were seeded in 96-well plates at a density of 2000 cells/well, allowed to attach overnight, and then treated with rising concentrations of testing compounds. The ability of viable cells to reduce 3-(4,5-dimethylthiazol-2-yl)-2,5-diphenyltetrazolium bromide into blue-purple formazan crystals, was measured 72 h after the treatments. Namely, l mg/mL of MTT reagent (Sigma-Aldrich Chemie GmbH, Steinheim, Germany) was added to each well and incubated for an additional 4 h. Finally, upon removal of the medium containing MTT, 200 µL of DMSO was added to each well.

BxPC-3 cells [2] = test: MTT cytotoxicity assay, BxPC-3; format: cell-based, human; details: for IC50: Homo sapiens, BXPC-3, 72 h, MTT, 72 h after treatment, mean ± SEM; for Selectivity index (IC50 normal cell line/IC50 cancer cell lines), BxPC-3: MRC-5 / BxPC-3, in brackets
Protocol: as §1, §2

HT-29 cells [3] = test: MTT cytotoxicity assay, HT-29; format: cell-based, human; details: for IC50: Homo sapiens, HT-29, MTT, 72 h after treatment, mean ± SEM; for Selectivity index (IC50 normal cell line/IC50 cancer cell lines), HT-29: MRC-5 / HT-29, in brackets
Protocol: as §1, §2

MRC-5 cells = test: MTT cytotoxicity assay, MRC-5 normal fibroblasts; format: cell-based, human; details: Homo sapiens, MRC5, 72 h, MTT, 72 h after treatment, mean ± SEM; healthy cell line
SW620 cells [4] = test: Wound-healing assay; format: cell-based, human; details: 25 μM
Protocol: The migratory potential of SW620 cells (human colon carcinoma cell line) was evaluated by a wound-healing assay. Cells were seeded in density of 300,000 cells per well in 24-well tissue culture microplates and grown for 24 h in DMEM medium supplemented with 10% FBS, penicillin/streptomycin and L-glutamine at 37 °C in a humidified atmosphere containing 5% CO2. Upon reaching confluence, a uniform wound was scratched into a monolayer of each well with a sterile plastic 200 μL micropipette tip. After wounding, the medium was replaced and cells were further treated with 25 μM of compounds 1, 2, 3, and 5 for 24 h and 48 h. Wound closure was monitored by imaging cells at 4× magnification using the ImageXpress® Pico Automated Cell Imaging System (Molecular Devices®, San Jose, CA, USA) immediately (T0), and at 24 h (T24) and 48 h (T48) after wounding. The captured images were analyzed by ImageJ software v. 1.52p (U.S. National Institutes of Health, Bethesda, MD, USA) to measure the degree of closure of the wounded area. Independent experiments were performed three times.

in vivo = details: in vivo
Protocol: (§3) Wild-type (AB) zebrafish embryos, kindly provided by Dr. Ana Cvejić (Wellcome Trust Sanger Institute, Cambridge, UK), were raised to adult stage in a temperature- and light-controlled zebrafish facility at 28 °C and a standard 14:10 h light–dark photoperiod. Fish were fed with commercial dry food (SDS200 and SDS300 granular food; Special Diet Services, Essex; UK and TetraMinTM flakes; Tetra Melle, Germany) twice a day, and with Artemia nauplii daily.
(§4) Embryos produced by pairwise mating were washed to remove debris, distributed at 10 per well into 24-well plates containing 1 mL of E3 medium (5 mM NaCl, 0.17 mM KCl, 0.33 mM CaCl2 and 0.33 mM MgSO4 in distilled water) and maintained at 28 °C. […] Dead embryos were recorded and discarded every 24 h. […] Experiments were performed in triplicate using 30 embryos for each concentration. At 120 hpf, embryos were anesthetized by the addition of 0.1% (w/v) tricaine solution (Sigma-Aldrich, St. Louis, MO, USA), photographed, and killed by freezing at −20 °C for ≥24 h.

[5] = tested on: zebrafish (Danio rerio) embryos; test: in vivo; details: embryos exposed for five days, up to 50 µM; cardiotoxicity, hepatotoxicity, malformations
Protocol: as §3, §4

SW620 cells [6] = test: Cytotoxicity in SW620 cells after 24 h treatment (Table S2); format: cell-based; details: Homo sapiens, SW-620, read-out: IC50 (µM) following 24h treatment in SW620 cells
HCT 116 cells [7] = test: SRB assay, compound plus γ-radiation, HCT 116; format: cell-based, human; details: IC50 concentration 24 h before 2 Gy γ-radiation, SRB 72 h after irradiation
Protocol: (§5) In the experiments involving irradiation, cells were irradiated at room temperature, in the vertical position with the cell monolayer facing ^60Co γ-rays (CIRUS-Cis Biointernational). The irradiation of samples was performed in Vinča Institute of Nuclear Sciences, Belgrade, Serbia. In all experiments, a clinically relevant radiation dose of 2 Gy with the dose rate of ~1 Gy/min was applied. For the evaluation of cell viability after treatments with radiation as well as after combined treatments, a sulforhodamine B (SRB) protein binding assay was used. This assay is based on the staining of cellular proteins. Maintaining conditions were identical to that of MTT assay. The cells were pretreated with IC50 concentrations of tested compounds for 24 h before irradiations. Following the 72 h post-irradiation incubation time under standard conditions (5% CO2, 37 °C) cells were fixed by protein precipitation with 10% trichloroacetic acid (TCA) at 4 °C for 1 h. Plates were rinsed with distillated water and stained with 0.4% SRB (Sigma-Aldrich Chemie GmbH, Steinheim, Germany) in 1% acetic acid, for 15 min at room temperature. Excess stain was removed by washing the wells in 1% acetic acid. […] The absorbance of each well was measured using a microplate reader (Wallac VICTOR2 1420 Multilabel counter, PerkinElmer, Turku, Finland) at a test wavelength of 550 nm.

BxPC-3 cells [8] = test: SRB assay, compound plus γ-radiation, BxPC-3; format: cell-based, human; details: IC50 concentration 24 h before 2 Gy γ-radiation, SRB 72 h after irradiation
Protocol: (§6) In the experiments involving irradiation, cells were irradiated at room temperature, in the vertical position with the cell monolayer facing ^60Co γ-rays (CIRUS-Cis Biointernational). The irradiation of samples was performed in Vinča Institute of Nuclear Sciences, Belgrade, Serbia. In all experiments, a clinically relevant radiation dose of 2 Gy with the dose rate of ~1 Gy/min was applied.
as §5, with “For” for “In the experiments involving irradiation, cells were irradiated at room temperature, in the vertical position with the cell monolayer facing ^60Co γ-rays (CIRUS-Cis Biointernational). The irradiation of samples was performed in Vinča Institute of Nuclear Sciences, Belgrade, Serbia. In all experiments, a clinically relevant radiation dose of 2 Gy with the dose rate of ~1 Gy/min was applied. For”

HT-29 cells [9] = test: SRB assay, compound plus γ-radiation, HT-29; format: cell-based, human; details: IC50 concentration 24 h before 2 Gy γ-radiation, SRB 72 h after irradiation
Protocol: as §6
For the evaluation of cell viability after treatments with radiation as well as after combined treatments, a sulforhodamine B (SRB) protein binding assay was used. This assay is based on the staining of cellular proteins. Maintaining conditions were identical to that of MTT assay. The cells were pretreated with IC50 concentrations of tested compounds for 24 h before irradiations. Following the 72 h post-irradiation incubation time under standard conditions (5% CO2, 37 °C) cells were fixed by protein precipitation with 10% trichloroacetic acid (TCA) at 4 °C for 1 h. Plates were rinsed with distillated water and stained with 0.4% SRB (Sigma-Aldrich Chemie GmbH, Steinheim, Germany) in 1% acetic acid, for 15 min at room temperature. Excess stain was removed by washing the wells in 1% acetic acid. After being rinsed, microwell plates were air dried until no staining moisture was visible. Bound dye was dissolved in 10 mM unbuffered Tris base (pH 10.5) for 5 min on a gyratory shaker. The absorbance of each well was measured using a microplate reader (Wallac VICTOR2 1420 Multilabel counter, PerkinElmer, Turku, Finland) at a test wavelength of 550 nm.

COX-2 = tested on: COX-2; design: method as in PMID 37111306; details: cited from earlier work
5-LOX = tested on: 5-LOX; design: method as in PMID 37111306; details: cited from earlier work

| Structure (SMILES) | IC50 (HCT 116 cells [1]) [µM] | Selectivity index (IC50 normal cell line/IC50 cancer cell lines), HCT 116 (HCT 116 cells [1]) | IC50 (BxPC-3 cells [2]) [µM] | Selectivity index (IC50 normal cell line/IC50 cancer cell lines), BxPC-3 (BxPC-3 cells [2]) | IC50 (HT-29 cells [3]) [µM] | Selectivity index (IC50 normal cell line/IC50 cancer cell lines), HT-29 (HT-29 cells [3]) | IC50 (MRC-5 cells) [µM] | Relative Wound Closure (%) 24 h (SW620 cells [4]; SW620, 24 h relative to T0, mean ± SEM, control 17.87 ± 3.48) | Relative Wound Closure (%) 48 h (SW620 cells [4]; SW620, 48 h relative to T0, mean ± SEM, control 24.51 ± 1.39) | LC50 (in vivo) [µM] | toxic response / adverse side effects in embryos [5] | IC50 (SW620 cells [6]) [µM] | cell proliferation, combined treatment versus radiation alone, HCT 116 (HCT 116 cells [7]) | cell proliferation, combined treatment versus radiation alone, BxPC-3 (BxPC-3 cells [8]) | cell proliferation, combined treatment versus radiation alone, HT-29 (HT-29 cells [9]) | IC50 (COX-2) [µM] | IC50 (5-LOX) [µM] |
| --- | --- | --- | --- | --- | --- | --- | --- | --- | --- | --- | --- | --- | --- | --- | --- | --- | --- |
| O=C(NO)NCc1ccccc1Nc1c(Cl)cccc1Cl [Compound 3] | 40.8 ± 1.95 | > 2.45 | 34.3 ± 1.79 | > 2.91 | 64.6 ± 3.41 | > 1.55 | > 100 | 3.86% and 3.86 ± 0.19% | 7.68% and 7.68 ± 2.99% | > 50 | did not elicit a toxic response; also recorded: no adverse side effects | 169 ± 5.7 | lower in comparison to cells that were only irradiated | significant change in cell inactivation |  |  |  |
| C=CCNC(=O)c1cc(C(C)(C)C)c(O)c(C(C)(C)C)c1 [Compound 6] | 23 ± 3.27 | > 4.35 | 8.63 ± 0.77 | > 11.59 | 24.8 ± 5.4 | > 4.04 | > 100 |  |  |  |  |  |  | statistically significant change with respect to radiation | statistically significant change with respect to radiation | 6.89 |  |
| C#CCNC(=O)c1cc(C(C)(C)C)c(O)c(C(C)(C)C)c1 [Compound 7] | 30.2 ± 5.07 | > 3.31 | 29.2 ± 1.56 | > 3.42 | > 100 |  | > 100 |  |  |  |  |  |  |  | significantly inactivated HT-29 cells |  | 12.6 |

Source: article PMC11207729, “Unveiling Anticancer Potential of COX-2 and 5-LOX Inhibitors: Cytotoxicity, Radiosensitization Potential and Antimigratory Activity against Colorectal and Pancreatic Carcinoma” (Pharmaceutics, 2024)
